Measurements taken from patent US20140179681A1, “METHODS AND COMPOSITIONS OF TARGETED DRUG DEVELOPMENT” (priority 2010, published 2014).
Counter-ions that a name gives are not always drawn. Like-named read-outs stand apart in the source and are kept apart here.

Legend:
[1] = test system: epithelial carcinoma A431 cell line; assay: MTT Cell Proliferation Assay, A431 cells; type: cell-based; settings: for MTT Assay IC50(A431/MDBK): ratio in parentheses: ratio MDBK IC50 / A431 IC50 (selectivity)
How it was run: (§1)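 Each concentration ran in quadruplicate across duplicate plates, with compounds serially diluted in DMSO and delivered at 0.5% DMSO in 0.5% FBS medium for 3 days.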

MDBK line = assay: MTT Cell Proliferation Assay, MDBK cells; type: cell-based, bovine
How it was run: as §1

EGFR = target: T1, EGFR (Homo sapiens, UniProt P00533); assay: EGFR in-cell Western (ICW) screening protocol (EGFR inhibition assay); type: cell-based; parameters: ICW 1 / ICW 2 / ICW Avg: unit not given here; settings: for ICW assay: Table 10; for ICW Avg / ICW 1 / ICW 2: ICW assay; for ICW Avg: average of runs 1 and 2; for ICW 1: run 1; for ICW 2: run 2
T1 construct: host or cells: A431
T1 sequence (P00533 25-1210): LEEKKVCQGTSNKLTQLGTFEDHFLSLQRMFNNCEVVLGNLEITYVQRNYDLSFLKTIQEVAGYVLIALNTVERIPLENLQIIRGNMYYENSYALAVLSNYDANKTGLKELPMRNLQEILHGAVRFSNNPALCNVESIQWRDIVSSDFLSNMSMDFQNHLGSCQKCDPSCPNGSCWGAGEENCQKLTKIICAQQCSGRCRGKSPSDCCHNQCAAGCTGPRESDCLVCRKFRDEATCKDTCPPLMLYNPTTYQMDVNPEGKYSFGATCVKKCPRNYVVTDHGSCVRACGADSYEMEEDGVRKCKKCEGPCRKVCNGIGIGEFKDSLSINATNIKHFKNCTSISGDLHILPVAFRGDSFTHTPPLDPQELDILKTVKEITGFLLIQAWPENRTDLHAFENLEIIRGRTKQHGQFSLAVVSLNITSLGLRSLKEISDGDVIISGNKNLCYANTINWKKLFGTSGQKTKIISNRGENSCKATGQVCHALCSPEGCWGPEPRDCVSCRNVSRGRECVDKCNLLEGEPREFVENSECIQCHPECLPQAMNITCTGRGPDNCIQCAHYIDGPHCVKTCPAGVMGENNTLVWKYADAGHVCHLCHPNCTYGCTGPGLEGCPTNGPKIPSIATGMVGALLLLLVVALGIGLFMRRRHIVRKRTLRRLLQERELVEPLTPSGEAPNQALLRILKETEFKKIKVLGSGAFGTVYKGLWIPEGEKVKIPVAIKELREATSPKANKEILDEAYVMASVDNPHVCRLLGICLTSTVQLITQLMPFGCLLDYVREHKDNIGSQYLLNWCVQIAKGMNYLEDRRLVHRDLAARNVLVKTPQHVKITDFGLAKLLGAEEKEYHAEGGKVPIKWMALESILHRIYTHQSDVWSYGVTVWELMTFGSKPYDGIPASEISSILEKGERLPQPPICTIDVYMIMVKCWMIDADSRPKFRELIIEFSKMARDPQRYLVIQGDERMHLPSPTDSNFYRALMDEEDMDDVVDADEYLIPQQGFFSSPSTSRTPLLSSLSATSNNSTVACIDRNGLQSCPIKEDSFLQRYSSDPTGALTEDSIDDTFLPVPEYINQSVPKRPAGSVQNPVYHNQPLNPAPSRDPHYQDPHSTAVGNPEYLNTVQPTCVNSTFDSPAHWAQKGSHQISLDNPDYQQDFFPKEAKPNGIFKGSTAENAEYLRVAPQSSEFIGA
How it was run: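 In-cell Western read-out: fixed A431 cells were co-stained for total EGFR and phospho-EGFR (Tyr1173; some runs Tyr1045). Before fixation, cells were serum-starved for 2 h, exposed to compound for 4 h, then given EGF for 10 min, usually at 10 ng/ml final (6.6 or 12.5 ng/ml in some runs).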

[2] = Homo sapiens, A-431, 72 h, Table 10, first of x/y(ratio): A431, three day treatment, unit not printed (doses in μM), read-out: MTT assay (first value)
[3] = Bos taurus, MDBK, 72 h, Table 10, second of x/y(ratio): MDBK, three day treatment, unit not printed (doses in μM), read-out: MTT assay (second value)
[4] = % Inhibition of EGF dependent EGFR phosphorylation in A431 cells, compound 125 μM in assay
[5] = Homo sapiens, A-431, A431 cells, first value of cell, read-out: MTT Assay IC50(A431/MDBK): A431
[6] = Bos taurus, MDBK, MDBK cells, second value of cell, read-out: MTT Assay IC50(A431/MDBK): MDBK
[7] = Homo sapiens, A-431, first value of 'a/b (c)', taken as A431 cells, read-out: MTT Screen, first value of cell
[8] = Bos taurus, MDBK, second value of 'a/b (c)', taken as MDBK cells, read-out: MTT Screen, second value of cell
[9] = A431 cells, first value of cell, read-out: MTT Assay IC50(A431/MDBK): A431
[10] = MDBK cells, second value of cell, read-out: MTT Assay IC50(A431/MDBK): MDBK

SMILES | IC50 [1, 5] [µM] | MTT Assay IC50(A431/MDBK): ratio in parentheses [1] | IC50 (MDBK line; [6]) [µM] | ICW Avg (EGFR) | ICW 1 (EGFR) | ICW 2 (EGFR) | other results
CCOc1ccccc1NC(=S)Nc1ccc(S(=O)(=O)Nc2ccc(Cl)c(Cl)c2)cc1 [AD4-12443] | – | – | – | – | – | – | IC50 [1, 2]: 6.71 µM; IC50 (MDBK line; [3]): 6.91 µM; ICW assay (EGFR; [4]): 44.7896
Cc1cc(C)c2nc(Nc3nc(=O)c(C)c(C)[nH]3)nc(C)c2c1 [12645 + TFA] | 6.49 | 0.97 | 6.29 | 64.97 | 60.00 | 69.95 | –
O=c1[nH]c(Nc2nc(-c3ccccc3)c3cc(Cl)ccc3n2)nc2ccccc12 [11706 + TFA] | 17.6 | 1.45 | 25.4 | 34.32 | 37.65 | 30.99 | –
CCc1ccc2nc(Nc3nc(C)c4c(n3)CCCC4)nc(C)c2c1 [compound 12213] | 39.1 | 0.99 | 38.6 | 28.01 | 28.35 | 27.66 | –
CCCCCC1C(=O)N=C(Nc2nc(C)c3ccc(CC)cc3n2)N=C1C (stereo not drawn) [12214 + TFA] | 32.4 | 1.40 | 45.5 | 34.91 | 42.29 | 27.52 | –
CCCC(=O)NC(=S)Nc1ccc(S(=O)(=O)Nc2ccc(OCC)cc2)cc1 [AD4-12183] | – | – | – | – | – | – | IC50 [1, 7]: 25.6 µM; IC50 (MDBK line; [8]): 17.2 µM; ICW Screen (ICW Inhibition) (EGFR): 37.695
COc1ccc(N2CCN(Cc3cc(=O)oc4cc5c(cc34)OCO5)CC2)cc1 [AD4-10209] | – | – | – | – | – | – | IC50 ([1]; Homo sapiens, A-431, Table 11, first of x/y(ratio): A431, unit inferred, read-out: MTT Follow-up (first value)): 2.5 µM; IC50 (MDBK line; Bos taurus, MDBK, Table 11, second of x/y(ratio): MDBK, unit inferred, read-out: MTT Follow-up (second value)): 50.1 µM; ICW Screen (EGFR; Table 11, % Inhibition of EGF dependent EGFR phosphorylation in A431 cells, compound 125 μM in assay): −10.6
CCOC(=O)CCC(=O)NC(=S)Nc1ccc(S(=O)(=O)Nc2cc(OC)nc(OC)n2)cc1 [AD4-11980] | – | – | – | – | – | – | IC50 [1, 7]: 49.8 µM; IC50 (MDBK line; [8]): 24.4 µM; ICW Screen (ICW Inhibition) (EGFR): 25.235
Cc1ccccc1NS(=O)(=O)c1ccc(NC(=S)Nc2cccc(C(F)(F)F)c2)cc1 [AD4-12487] | – | – | – | – | – | – | IC50 [1, 2]: 6.45 µM; IC50 (MDBK line; [3]): 5.5 µM; ICW assay (EGFR; [4]): 84.5602
COc1ccc(NC(=S)Nc2ccc(S(=O)(=O)Nc3cc(Cl)cc(Cl)c3)cc2)cc1OC [AD4-12481] | – | – | – | – | – | – | IC50 [1, 2]: 10.4 µM; IC50 (MDBK line; [3]): 11 µM; ICW assay (EGFR; [4]): 42.006
CC1(C)CC(=O)c2cnc(Nc3nc(-c4ccccc4)c4cc(Cl)ccc4n3)nc2C1 [11807 + TFA] | 5.31 | 3.35 | 17.8 | 25.37 | 30.73 | 20.02 | –
C=CCN(CC=C)S(=O)(=O)c1ccc(NC(=S)NC(=O)/C=C/c2ccc(OC)cc2)cc1 [AD4-12016] | – | – | – | – | – | – | IC50 [1, 7]: 15.8 µM; IC50 (MDBK line; [8]): 23.5 µM; ICW Screen (ICW Inhibition) (EGFR): 34.399
CCOc1ccccc1NC(=S)Nc1ccc(S(=O)(=O)Nc2c(C)cc(C)cc2C)cc1 [AD4-12465] | – | – | – | – | – | – | IC50 [1, 2]: 9.92 µM; IC50 (MDBK line; [3]): 6.54 µM; ICW assay (EGFR; [4]): 31.3476
CCc1c(C)nc(Nc2nc(C)c3cccc(OC)c3n2)[nH]c1=O [12738 + TFA] | – | 0.54 | – | 45.35 | 53.67 | 37.02 | IC50 [1, 9]: 45.4 µM; IC50 (MDBK line; [10]): 24.6 µM
Cc1ccc2nc(Nc3nc(CSc4nc5ccccc5s4)cc(=O)[nH]3)nc(C)c2c1 [compound 11592] | 21.8 | 0.84 | 18.3 | 29.16 | 24.41 | 33.91 | –
Cc1ccc(NS(=O)(=O)c2ccc(NC(=S)NC(=O)CC(C)C)cc2)cc1C [AD4-12024] | – | – | – | – | – | – | IC50 [1, 7]: 6.77 µM; IC50 (MDBK line; [8]): 6.34 µM; ICW Screen (ICW Inhibition) (EGFR): 31.244
CCc1c(C)nc(Nc2nc(C)c3cccc(OC)c3n2)[nH]c1=O [compound 12613] | – | 0.65 | – | 52.18 | 47.72 | 56.65 | IC50 [1, 9]: 17.6 µM; IC50 (MDBK line; [10]): 11.5 µM
